The values below come from patent US12492199B2, “Pyridopyrimidines as histamine H4-receptor inhibitors” (FAES FARMA, S.A., priority 2018, dated 2025).

The target of one experiment is human H4 receptor (Homo sapiens (Human), UniProt Q9H3N8). The experiment in a line: H4 Binding assay ([3H]histamine competition, membranes from CHO-K1 cells transfected with human H4 receptor). The conditions noted are these: affinity for human histamine H4 receptor, class symbols; read-out: ACTIVITY CLASS hH4R (Ki). As to the method:
Affinity for histamine H4-receptor was determined by H4 Binding assay:
• Membranes from CHO-K1 cells transfected with human H4 receptor and microplates of 96-well format were used. • For competition studies cell membranes were homogenated in Tris-HCl 50 mM, EDTA 5 mM, pH 7.4 and added to the microplate at the concentration of approximately 15 μg/well. […] Non specific binding was defined using 10 μM unlabeled histamine and the total incubation volume was 275 μl per well. • Incubations were performed under gentle agitation at 25° C. for 60 min and concluding with a rapid vacuum filtration using pre-soaked filters (0.5% polyethylenimine). After ten rapid washes with cold wash buffer (50 mM Tris-HCl buffer) the filter plates were dried at room temperature for 30 min. • Finally, scintillation liquid (Microscint 20) was added to the whole microplate in order to measure the radioactivity reattained on the filters using a specific scintillation counter (Top Count—NXT). […] H1 Binding Assay Materials

The target in the next experiment is human H1 receptor (Homo sapiens (Human), UniProt P35367). The experiment in a line: H1 Binding assay ([3H]pyrilamine competition, membranes from CHO-K1 cells transfected with human H1 receptor). The settings on record: affinity for human histamine H1 receptor, class symbols; — not defined in key; read-out: ACTIVITY CLASS hH1R (Ki). As for the experimental part:
Cetirizine and pyrilamine were supplied by Sigma-Aldrich. Bilastine was synthetized at FAES FARMA facilities (Lamiako-Leioa, Spain), chemical reagents such as Na2HPO4, KH2PO4 or polyvinylpyrrolidone as well as multiscreen microplates (MSFBN6B50) were purchased from Merck Millipore, scintillation liquid (Microscint 20), human H1 membranes (ES-390-M400UA) and ^3H-pirilamina (NET 594) were provided by PerkinElmer.
Affinity for histamine H1-receptor was determined by H1 Binding assay: • Membranes form CHO-K1 cells transfected with human H1 receptor and microplates of 96-well format were used. • For competition studies cell membranes were homogenated in 50 mM phosphate buffer (Na2HPO4 and KH2PO4 mixed to pH 7.4 at 25° C.) and added to the microplate at the concentration of approximately 5 μg/well. […] Non specific binding was defined using 10 μM unlabeled pyrilamine and the total incubation volume was 275 μl per well. • Incubations were performed until gentle agitation at 25° C. for 60 min and concluding with a rapid vacuum filtration using pre-soaked filters (5% polyvinylpyrrolidone). After ten rapid washes with cold wash buffer (50 mM phosphate buffer) the filter plates were dried at room temperature for 30 min. • Finally, scintillation liquid (Microscint 20) was added to the whole microplate in order to measure the radioactivity retained on the filters using an specific scintillation counter (Top Count—NXT). Curve analysis and values of IC50 were determined using Grap Pad Prism program (GraphPad Software, San Diego, USA). • Test compounds were initially evaluated at one concentration (1 μM) and thereafter if significant displacement was observed (>40%) a concentration-response curve was conducted. Each test concentration was measured in triplicate. • As reference compounds pyrilamine, cetirizine and Bilastine were used.

The structures appear in SMILES notation. Bounds are passed on as bounds.

human H1 receptor, sequence (P35367 whole entry): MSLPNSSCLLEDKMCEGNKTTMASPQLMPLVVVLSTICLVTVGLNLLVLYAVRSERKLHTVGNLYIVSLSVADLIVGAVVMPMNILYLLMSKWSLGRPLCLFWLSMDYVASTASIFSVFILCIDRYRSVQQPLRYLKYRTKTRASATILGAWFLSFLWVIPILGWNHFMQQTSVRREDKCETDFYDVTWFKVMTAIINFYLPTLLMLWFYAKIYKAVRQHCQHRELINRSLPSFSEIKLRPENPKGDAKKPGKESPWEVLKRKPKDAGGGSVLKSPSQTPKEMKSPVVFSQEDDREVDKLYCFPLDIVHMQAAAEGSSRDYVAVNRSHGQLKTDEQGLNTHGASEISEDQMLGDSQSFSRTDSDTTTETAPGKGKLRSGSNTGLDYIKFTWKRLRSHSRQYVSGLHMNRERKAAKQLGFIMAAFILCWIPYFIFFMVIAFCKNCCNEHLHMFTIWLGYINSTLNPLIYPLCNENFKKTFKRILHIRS
human H4 receptor, sequence (Q9H3N8 whole entry): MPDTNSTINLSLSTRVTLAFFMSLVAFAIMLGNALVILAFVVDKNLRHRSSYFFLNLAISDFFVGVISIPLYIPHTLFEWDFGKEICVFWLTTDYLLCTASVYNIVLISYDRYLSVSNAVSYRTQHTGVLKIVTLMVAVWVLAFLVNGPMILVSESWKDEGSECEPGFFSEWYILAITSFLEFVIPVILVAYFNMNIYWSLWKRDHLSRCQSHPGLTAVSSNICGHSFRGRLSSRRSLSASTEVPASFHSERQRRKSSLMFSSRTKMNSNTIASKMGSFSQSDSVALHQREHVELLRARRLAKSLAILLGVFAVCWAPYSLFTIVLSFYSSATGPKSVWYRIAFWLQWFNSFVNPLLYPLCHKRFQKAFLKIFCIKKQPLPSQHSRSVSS

Turning to `CN1CCN(c2nc(NCCS(=O)(=O)Cc3ccccc3)c3cc(Cl)ncc3n2)CC1` [Example 94, N-(2-(benzylsulfonyl)ethyl)-6-chloro-2-(4-methylpiperazin-1-yl)pyrido[3,4-d]pyrimidin-4-amine], the Ki (in general, the dissociation constant of the complex between target and ligand, obtained from inhibition or displacement) on human H4 receptor is below 100 nM; at human H1 receptor it was below 1000 nM.
For the compound `CN1CCN(c2nc(NCC[S+]([O-])Cc3ccccc3)c3cc(Cl)ncc3n2)CC1` (stereo not shown) [Example 95, N-(2-(benzylsulfinyl)ethyl)-6-chloro-2-(4-methylpiperazin-1-yl)pyrido[3,4-d]pyrimidin-4-amine], the inhibition constant (Ki) on human H4 receptor was below 100 nM; on human H1 receptor, below 1000 nM.
